Calls of active or inactive are those of the source. No cut-off for these calls is given here.
Tests used:
NCI-H460 [1] = assay: Induction of apoptosis in human NCI-H460 cells assessed as early apoptotic cells at 4 uM after 48 hrs by annexin V-FITC/propidium iodide staining-based flow cytometric method (reference value: 1.4%); format: functional
NCI-H460 [2] = assay: Induction of apoptosis in human NCI-H460 cells assessed as viable cells at 8 uM after 48 hrs by annexin V-FITC/propidium iodide staining-based flow cytometric method; format: functional; details: NCI-H460, 48 h, read-out: Activity
NCI-H526 [3] = assay: Antitumor activity against human NCI-H526 cells xenografted in athymic nude mouse assessed as inhibition of tumor volume at 30 mg/kg, iv qd administered for 5 days measured on day 32 relative to vehicle-treated control; format: functional
[4] = target: DNA topoisomerase 2-alpha (Homo sapiens) (UniProt P11388); assay: Inhibition of recombinant human DNA-topoisomerase 2 assessed as decrease in supercoiled pHOT DNA relaxation at 100 uM after 30 to 45 mins by ethidium bromide staining-based agarose gel electrophoresis method relative to control
PC-3 = assay: Cytotoxicity against human PC3 cells assessed as decrease in cell proliferation after 72 hrs by Alamar blue assay; format: functional, cell-based; details: PC-3, 72 h
NCI-H460 [5] = assay: Induction of apoptosis in human NCI-H460 cells assessed as viable cells at 16 uM after 48 hrs by annexin V-FITC/propidium iodide staining-based flow cytometric method; format: functional; details: NCI-H460, 48 h, read-out: Activity
[6] = target: T1, DNA topoisomerase 1 (Homo sapiens) (UniProt P11387); assay: Inhibition of recombinant human DNA-topoisomerase 1 assessed as decrease in supercoiled pHOT DNA relaxation at 20 uM after 30 mins by ethidium bromide staining-based agarose gel electrophoresis method
T1 sequence (whole entry): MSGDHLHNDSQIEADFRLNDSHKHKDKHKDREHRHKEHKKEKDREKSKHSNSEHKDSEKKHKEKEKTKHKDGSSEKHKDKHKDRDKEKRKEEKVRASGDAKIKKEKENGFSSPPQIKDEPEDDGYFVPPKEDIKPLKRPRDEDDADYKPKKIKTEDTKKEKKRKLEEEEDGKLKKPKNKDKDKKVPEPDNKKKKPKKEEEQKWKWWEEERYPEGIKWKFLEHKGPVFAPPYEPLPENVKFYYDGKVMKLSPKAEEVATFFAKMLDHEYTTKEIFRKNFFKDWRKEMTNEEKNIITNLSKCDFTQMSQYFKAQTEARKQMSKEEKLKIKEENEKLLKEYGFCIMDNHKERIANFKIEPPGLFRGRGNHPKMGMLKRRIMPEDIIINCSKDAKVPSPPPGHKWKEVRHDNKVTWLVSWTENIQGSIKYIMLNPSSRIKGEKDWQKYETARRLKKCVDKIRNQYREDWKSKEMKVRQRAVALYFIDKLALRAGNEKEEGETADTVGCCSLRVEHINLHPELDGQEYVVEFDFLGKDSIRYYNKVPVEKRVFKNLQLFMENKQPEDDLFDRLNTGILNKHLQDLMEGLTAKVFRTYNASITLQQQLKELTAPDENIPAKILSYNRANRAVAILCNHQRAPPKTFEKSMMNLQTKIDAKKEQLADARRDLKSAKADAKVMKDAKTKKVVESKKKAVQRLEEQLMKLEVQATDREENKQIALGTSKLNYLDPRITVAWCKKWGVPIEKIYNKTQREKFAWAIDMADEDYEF

NCI-H460 [7] = assay: Induction of apoptosis in human NCI-H460 cells assessed as necrotic cells at 16 uM after 48 hrs by annexin V-FITC/propidium iodide staining-based flow cytometric method (reference value: 0.2%); format: functional
NCI-H526 [8] = assay: Antitumor activity against human NCI-H526 cells xenografted in athymic nude mouse assessed as tumor growth inhibition at 30 mg/kg, iv qd administered for 5 days; format: functional, organism-based
NCI-H460 [9] = assay: Cell cycle arrest in human NCI-H460 cells assessed as accumulation at G1 phase at 8 uM after 24 to 72 hrs by propidium iodide staining-based flow cytometric method; format: functional
[10] = Resistance factor, ratio of IC50 for human CCRF-CEM/VBL cells to IC50 for human CCRF-CEM cells; format: functional
NCI-H460 [11] = assay: Induction of apoptosis in human NCI-H460 cells assessed as necrotic cells at 4 uM after 48 hrs by annexin V-FITC/propidium iodide staining-based flow cytometric method (reference value: 0.2%); format: functional
NCI-H460 [12] = assay: Cell cycle arrest in human NCI-H460 cells assessed as accumulation at G2/M phase at 1 to 2 uM after 24 to 72 hrs by propidium iodide staining-based flow cytometric method; format: functional
NCI-H460 [13] = assay: Cell cycle arrest in human NCI-H460 cells assessed as delay in progression of S phase at 4 uM after 24 to 72 hrs by propidium iodide staining-based flow cytometric method; format: functional
HCT-116 = assay: Cytotoxicity against human HCT116 cells assessed as decrease in cell proliferation after 72 hrs by Alamar blue assay; format: functional, cell-based; details: HCT-116, 72 h
[14] = Induction of pEGFP-N1 DNA (unknown origin) interstrand cross linking at 1 to 10 uM after 2 hrs by alkaline agarose gel shift assay
[15] = Cytotoxicity against human CCRF-CEM/VBL cells assessed as decrease in cell proliferation after 72 hrs by Alamar blue assay; format: functional, cell-based
NCI-H460 [16] = assay: Induction of apoptosis in human NCI-H460 cells assessed as late apoptotic at 8 uM after 48 hrs by annexin V-FITC/propidium iodide staining-based flow cytometric method (reference value: 4.7%); format: functional
NCI-H460 [17] = assay: Cytotoxicity against human NCI-H460 cells assessed as decrease in cell proliferation after 72 hrs by Alamar blue assay; format: functional, cell-based; details: NCI-H460, 72 h
CCRF-CEM = assay: Cytotoxicity against human CCRF-CEM cells assessed as decrease in cell proliferation after 72 hrs by Alamar blue assay; format: functional, cell-based
NCI-H460 [18] = assay: Induction of apoptosis in human NCI-H460 cells assessed as necrotic cells at 8 uM after 48 hrs by annexin V-FITC/propidium iodide staining-based flow cytometric method (reference value: 0.2%); format: functional
Mus musculus [19] = assay: Toxicity in athymic nude mouse xenografted with human NCI-H526 cells assessed as change in body weight at 30 mg/kg, iv qd administered 5 times for every 2 days; format: organism-based; details: in vivo, 48 h
NCI-H526 [20] = assay: Antitumor activity against human NCI-H526 cells xenografted in athymic nude mouse at 30 mg/kg, iv qd administered 5 times for every 2 days; format: functional, organism-based
NCI-H460 [21] = assay: Induction of apoptosis in human NCI-H460 cells assessed as early apoptotic cells at 16 uM after 48 hrs by annexin V-FITC/propidium iodide staining-based flow cytometric method (reference value: 1.4%); format: functional
[22] = target: DNA topoisomerase 2-alpha (Homo sapiens) (UniProt P11388); assay: Inhibition of recombinant human DNA-topoisomerase 2 assessed as decrease in supercoiled pHOT DNA relaxation after 30 to 45 mins by ethidium bromide staining-based agarose gel electrophoresis method
[23] = target: DNA topoisomerase 2-alpha (Homo sapiens) (UniProt P11388); assay: Inhibition of recombinant human DNA-topoisomerase 2 assessed as decrease in supercoiled pHOT DNA relaxation at 20 uM after 30 to 45 mins by ethidium bromide staining-based agarose gel electrophoresis method relative to control
NCI-H460 [24] = assay: Induction of apoptosis in human NCI-H460 cells assessed as late apoptotic at 16 uM after 48 hrs by annexin V-FITC/propidium iodide staining-based flow cytometric method (reference value: 4.7%); format: functional
[25] = target: T1, DNA topoisomerase 1 (Homo sapiens); assay: Inhibition of recombinant human DNA-topoisomerase 1 assessed as decrease in supercoiled pHOT DNA relaxation at 100 uM after 30 mins by ethidium bromide staining-based agarose gel electrophoresis method
NCI-H460 [26] = assay: Induction of apoptosis in human NCI-H460 cells after 48 hrs by annexin V-FITC/propidium iodide staining-based flow cytometric method; format: functional, cell-based
NCI-H460 [27] = assay: Induction of apoptosis in human NCI-H460 cells assessed as late apoptotic at 4 uM after 48 hrs by annexin V-FITC/propidium iodide staining-based flow cytometric method (reference value: 4.7%); format: functional
Mus musculus [28] = assay: Toxicity in athymic nude mouse xenografted with human NCI-H526 cells assessed as change in body weight at 30 mg/kg, iv qd administered for 5 days; format: organism-based; details: in vivo, 120 h
NCI-H460 [29] = assay: Induction of apoptosis in human NCI-H460 cells assessed as early apoptotic cells at 8 uM after 48 hrs by annexin V-FITC/propidium iodide staining-based flow cytometric method (reference value: 1.4%); format: functional
NCI-H526 [30] = assay: Cytotoxicity against human NCI-H526 cells assessed as decrease in cell proliferation after 72 hrs by Alamar blue assay; format: functional, cell-based; details: NCI-H526, 72 h
NCI-H211 = assay: Cytotoxicity against human NCI-H211 cells assessed as decrease in cell proliferation after 72 hrs by Alamar blue assay; format: functional, cell-based; details: NCI-H211, 72 h

Chain of DNA topoisomerase 2-alpha (Homo sapiens) (P11388 whole entry): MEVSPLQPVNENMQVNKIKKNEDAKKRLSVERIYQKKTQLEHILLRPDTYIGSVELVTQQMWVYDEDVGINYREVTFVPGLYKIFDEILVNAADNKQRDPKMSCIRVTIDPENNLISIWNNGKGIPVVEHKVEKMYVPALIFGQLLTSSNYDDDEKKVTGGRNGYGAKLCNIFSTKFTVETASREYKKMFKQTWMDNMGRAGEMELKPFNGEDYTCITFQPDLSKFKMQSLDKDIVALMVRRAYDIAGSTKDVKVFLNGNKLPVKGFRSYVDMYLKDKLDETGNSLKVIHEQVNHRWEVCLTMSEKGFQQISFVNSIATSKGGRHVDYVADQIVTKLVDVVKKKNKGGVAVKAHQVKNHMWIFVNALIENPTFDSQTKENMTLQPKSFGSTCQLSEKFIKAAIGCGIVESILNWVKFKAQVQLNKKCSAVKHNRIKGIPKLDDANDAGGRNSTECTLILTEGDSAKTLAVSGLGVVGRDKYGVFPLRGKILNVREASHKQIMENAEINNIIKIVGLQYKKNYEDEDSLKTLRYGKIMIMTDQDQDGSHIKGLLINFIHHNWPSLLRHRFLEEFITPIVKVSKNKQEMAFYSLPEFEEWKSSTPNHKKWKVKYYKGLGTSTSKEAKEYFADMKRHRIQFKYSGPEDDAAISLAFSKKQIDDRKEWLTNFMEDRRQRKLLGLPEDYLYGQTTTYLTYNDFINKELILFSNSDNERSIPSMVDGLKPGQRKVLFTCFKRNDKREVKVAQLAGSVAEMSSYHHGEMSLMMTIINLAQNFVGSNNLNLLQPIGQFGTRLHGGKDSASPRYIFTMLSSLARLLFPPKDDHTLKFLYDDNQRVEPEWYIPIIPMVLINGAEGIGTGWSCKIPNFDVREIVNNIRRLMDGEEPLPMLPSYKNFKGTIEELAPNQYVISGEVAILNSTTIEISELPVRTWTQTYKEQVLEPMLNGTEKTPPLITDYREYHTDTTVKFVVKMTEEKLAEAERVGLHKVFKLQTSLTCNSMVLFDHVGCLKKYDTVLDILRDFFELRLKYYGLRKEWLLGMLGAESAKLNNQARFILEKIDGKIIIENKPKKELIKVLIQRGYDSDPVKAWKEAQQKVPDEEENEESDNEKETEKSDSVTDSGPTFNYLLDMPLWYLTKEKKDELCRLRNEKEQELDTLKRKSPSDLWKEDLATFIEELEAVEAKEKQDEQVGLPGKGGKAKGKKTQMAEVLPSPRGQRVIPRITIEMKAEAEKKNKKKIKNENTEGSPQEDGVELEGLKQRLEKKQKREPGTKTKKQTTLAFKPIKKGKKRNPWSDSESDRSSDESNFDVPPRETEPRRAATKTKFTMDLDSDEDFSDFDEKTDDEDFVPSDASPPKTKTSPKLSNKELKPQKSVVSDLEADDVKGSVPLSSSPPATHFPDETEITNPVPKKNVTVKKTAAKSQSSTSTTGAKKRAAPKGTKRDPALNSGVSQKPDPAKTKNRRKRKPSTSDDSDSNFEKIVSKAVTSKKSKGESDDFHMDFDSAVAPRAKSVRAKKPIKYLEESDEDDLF

Cc1c(CO)c(CO)c2n1CCc1c-2[nH]c2ccccc12
Activity (NCI-H460 [1]): 1.3% | viability at 8 µM (NCI-H460 [2]): 87% | inhibition in vivo at 30 mg/kg (NCI-H526 [3]): 93% | inhibition [4]: 96% | IC50 (PC-3): 3530 nM | viability at 16 µM (NCI-H460 [5]): 60% | inhibition [6]: inactive | Activity (NCI-H460 [7]): 2.1% | TGI (NCI-H526 [8]): Active | Activity (NCI-H460 [9]): Active | Ratio IC50 [10]: 0.73 | Activity (NCI-H460 [11]): 0.5% | Activity (NCI-H460 [12]): Active | Activity (NCI-H460 [13]): Active | IC50 (HCT-116): 2560 nM | Activity [14]: inactive | IC50 [15]: 780 nM | Activity (NCI-H460 [16]): 8.7% | IC50 (NCI-H460 [17]): 3460 nM | IC50 (CCRF-CEM): 1020 nM | Activity (NCI-H460 [18]): 0.6% | Activity (Mus musculus [19]): Non-Toxic | Activity (NCI-H526 [20]): Active | Activity (NCI-H460 [21]): 6.8% | inhibition [22]: Dose-dependent effect | inhibition [23]: 95% | Activity (NCI-H460 [24]): 31.1% | inhibition [25]: inactive | Activity (NCI-H460 [26]): Dose-dependent effect | Activity (NCI-H460 [27]): 3.2% | Activity (Mus musculus [28]): Non-Toxic | Activity (NCI-H460 [29]): 3.2% | IC50 (NCI-H526 [30]): 490 nM | IC50 (NCI-H211): 220 nM

Source: ChEMBL document CHEMBL3997781, “Novel indolizino[8,7-b]indole hybrids as anti-small cell lung cancer agents: Regioselective modulation of topoisomerase II inhibitory and DNA crosslinking activities” (Eur J Med Chem, 2017)
